Data published in PubChem BioAssay AID248 (DTP/NCI, 2004).
Where “and” joins values, the source holds several entries; their conditions need not be identical. Identical values can stand only once. Inconclusive results and toxic doses are left out. Rule as the data show it: active = T/C of 150% or more; inactive = T/C below 125%.

Test system: L1210 leukemia ip in BDF1 mice, survival T/C
Assay: NCI In Vivo Anticancer Drug Screen. Data for tumor model L1210 Leukemia (intraperitoneal) in B6D2F1 (BDF1) mice
Conditions: endpoint: mean survival time, higher = longer survival
Procedure, shortened: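 Transplantable tumor model; survival measured in treated vs vehicle control mice. Value = treated/control.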

[1] = dose: 100.0 mg/kg/injection, schedule: Q04DX002 (ip), vehicle: saline with Tween-80
[2] = dose: 200.0 mg/kg/injection, schedule: Q04DX002 (ip), vehicle: saline with Tween-80
[3] = dose: 25.0 mg/kg/injection, schedule: Q01DX009 (ip), vehicle: Klucel (hydroxypropylcellulose) (HPC)
[4] = dose: 50.0 mg/kg/injection, schedule: Q01DX009 (ip), vehicle: Klucel (hydroxypropylcellulose) (HPC)
[5] = dose: 12.5 mg/kg/injection, schedule: Q01DX001 (ip), vehicle: saline
[6] = dose: 25.0 mg/kg/injection, schedule: Q01DX001 (ip), vehicle: saline
[7] = dose: 50.0 mg/kg/injection, schedule: Q01DX001 (ip), vehicle: saline
[8] = dose: 100.0 mg/kg/injection, schedule: Q04DX002 (ip), vehicle: Klucel (hydroxypropylcellulose) (HPC)
[9] = dose: 200.0 mg/kg/injection, schedule: Q04DX002 (ip), vehicle: Klucel (hydroxypropylcellulose) (HPC)
[10] = dose: 400.0 mg/kg/injection, schedule: Q04DX002 (ip), vehicle: Klucel (hydroxypropylcellulose) (HPC)
[11] = dose: 100.0 mg/kg/injection, schedule: Q01DX009 (ip), vehicle: saline
[12] = dose: 200.0 mg/kg/injection, schedule: Q01DX009 (ip), vehicle: saline
[13] = dose: 400.0 mg/kg/injection, schedule: Q01DX009 (ip), vehicle: saline
[14] = dose: 100.0 mg/kg/injection, schedule: Q01DX001 (ip), vehicle: saline
[15] = dose: 200.0 mg/kg/injection, schedule: Q01DX001 (ip), vehicle: saline
[16] = dose: 400.0 mg/kg/injection, schedule: Q01DX001 (ip), vehicle: saline
[17] = dose: 75.0 mg/kg/injection, schedule: Q01DX001 (ip), vehicle: other
[18] = dose: 100.0 mg/kg/injection, schedule: Q01DX009 (ip), vehicle: Klucel (hydroxypropylcellulose) (HPC)

Measured: T/C

Cc1cc(C)c(NC(=O)c2cc(C(=O)O)c(C(=O)Nc3c(C)cc(C)cc3C)cc2C(=O)O)c(C)c1
inactive: dose: 50.0 mg/kg/injection, schedule: Q01DX009 (ip), vehicle: saline with Tween-80 119 % of control and 91 % of control | dose: 100.0 mg/kg/injection, schedule: Q01DX001 (ip), vehicle: saline with Tween-80 104 % of control | [1] 104 % of control and 110 % of control | dose: 100.0 mg/kg/injection, schedule: Q04DX003 (ip), vehicle: saline with Tween-80 107 % of control | dose: 200.0 mg/kg/injection, schedule: Q01DX001 (ip), vehicle: saline with Tween-80 98 % of control | [2] 94 % of control and 113 % of control | dose: 200.0 mg/kg/injection, schedule: Q04DX003 (ip), vehicle: saline with Tween-80 100 % of control | dose: 400.0 mg/kg/injection, schedule: Q01DX001 (ip), vehicle: saline with Tween-80 102 % of control | dose: 400.0 mg/kg/injection, schedule: Q01DX009 (ip), vehicle: saline with Tween-80 87 % of control and 89 % of control | dose: 400.0 mg/kg/injection, schedule: Q04DX002 (ip), vehicle: saline with Tween-80 100 % of control | dose: 400.0 mg/kg/injection, schedule: Q04DX003 (ip), vehicle: saline with Tween-80 96 % of control

S=C(NCN1CCNCC1)C(=S)NCN1CCNCC1
inactive: dose: 12.5 mg/kg/injection, schedule: Q01DX009 (ip), vehicle: Klucel (hydroxypropylcellulose) (HPC) 97 % of control | [3] 100 % of control | [4] 93 % of control

CC(Cc1ccccc1)N(C)C (stereo unspecified)
inactive: [5] 102 % of control | [6] 94 % of control | dose: 25.0 mg/kg/injection, schedule: Q04DX003 (ip), vehicle: saline 101 % of control | [7] 94 % of control | dose: 50.0 mg/kg/injection, schedule: Q04DX003 (ip), vehicle: saline 101 % of control

CC(C)CCCC(C)C1CCC2C3CC=C4CC(OC(=O)C(Cl)(Cl)Cl)CCC4(C)C3CCC12C (stereo unspecified)
inactive: dose: 40.0 mg/kg/injection, schedule: Q01DX009 (sc), vehicle: steriod suspending solution 94 % of control | dose: 50.0 mg/kg/injection, schedule: Q04DX003 (sc), vehicle: steriod suspending solution 98 % of control | dose: 75.0 mg/kg/injection, schedule: Q01DX009 (sc), vehicle: steriod suspending solution 101 % of control | dose: 100.0 mg/kg/injection, schedule: Q04DX003 (sc), vehicle: steriod suspending solution 101 % of control | dose: 150.0 mg/kg/injection, schedule: Q01DX009 (sc), vehicle: steriod suspending solution 95 % of control | dose: 200.0 mg/kg/injection, schedule: Q04DX003 (sc), vehicle: steriod suspending solution 108 % of control

OCC1CCCCC1CO (stereo unspecified)
inactive: [8] 113 % of control | [9] 107 % of control | [10] 103 % of control

NC(=O)CC(N)c1nn[nH]n1 (stereo unspecified)
inactive: [11] 89 % of control | dose: 100.0 mg/kg/injection, schedule: Q04DX003 (ip), vehicle: saline 97 % of control | [12] 98 % of control | dose: 200.0 mg/kg/injection, schedule: Q04DX003 (ip), vehicle: saline 100 % of control | [13] 102 % of control | dose: 400.0 mg/kg/injection, schedule: Q04DX003 (ip), vehicle: saline 103 % of control

Cc1c2ccccc2nc(CNC2CCCCC2)[n+]1[O-]
inactive: [5] 98 % of control | [6] 97 % of control | [7] 90 % of control

CCOc1ccc(N=C=S)cc1
inactive: [14] 93 % of control | [15] 98 % of control | [16] 102 % of control

O=C(O)C(O)Cc1ccc(O)cc1 (stereo unspecified)
inactive: [14] 90 % of control | [15] 92 % of control | [16] 97 % of control

O=C(COc1ccc(Cl)cc1)Nc1ccc(I)cc1
inactive: [8] 92 % of control | [9] 100 % of control | [10] 96 % of control

O=S(c1ccccc1)C1CCCCC1O (stereo unspecified)
inactive: [1] 108 % of control | [2] 118 % of control

CCOC(=O)CNC(N)=O
inactive: [11] 96 % of control | [12] 107 % of control | [13] 96 % of control

Cc1cc(NS(=O)(=O)c2ccc(N=Nc3c(N)n(C)c(=O)n(C)c3=O)cc2)nc(C)n1
inactive: dose: 100.0 mg/kg/injection, schedule: Q01DX001 (ip), vehicle: carboxymethylcellulose (CMC) 89 % of control | dose: 200.0 mg/kg/injection, schedule: Q01DX001 (ip), vehicle: carboxymethylcellulose (CMC) 104 % of control | dose: 400.0 mg/kg/injection, schedule: Q01DX001 (ip), vehicle: carboxymethylcellulose (CMC) 101 % of control

CC#CCC(N)C(=O)O (stereo unspecified)
inactive: dose: 75.0 mg/kg/injection, schedule: Q01DX001 (ip), vehicle: carboxymethylcellulose (CMC) 109 % of control | dose: 80.0 mg/kg/injection, schedule: Q01DX009 (ip), vehicle: saline 105 % of control | dose: 150.0 mg/kg/injection, schedule: Q01DX001 (ip), vehicle: carboxymethylcellulose (CMC) 103 % of control | dose: 160.0 mg/kg/injection, schedule: Q01DX009 (ip), vehicle: saline 106 % of control | dose: 300.0 mg/kg/injection, schedule: Q01DX001 (ip), vehicle: carboxymethylcellulose (CMC) 118 % of control | dose: 320.0 mg/kg/injection, schedule: Q01DX009 (ip), vehicle: saline 94 % of control

CCSCCC#N
inactive: dose: 100.0 mg/kg/injection, schedule: Q04DX002 (ip), vehicle: saline 103 % of control | dose: 200.0 mg/kg/injection, schedule: Q04DX002 (ip), vehicle: saline 109 % of control

CC(C(=O)O)N(CC(=O)O)CC(=O)O.[Co+2].[NH-]CC(=O)O (stereo unspecified)
inactive: dose: 6.25 mg/kg/injection, schedule: Q01DX009 (ip), vehicle: water 106 % of control and 89 % of control | dose: 12.5 mg/kg/injection, schedule: Q01DX009 (ip), vehicle: water 93 % of control and 106 % of control and 124 % of control | dose: 25.0 mg/kg/injection, schedule: Q01DX009 (ip), vehicle: water 102 % of control and 109 % of control | dose: 50.0 mg/kg/injection, schedule: Q01DX009 (ip), vehicle: water 109 % of control and 114 % of control | dose: 100.0 mg/kg/injection, schedule: Q04DX003 (ip), vehicle: water 107 % of control | dose: 200.0 mg/kg/injection, schedule: Q04DX003 (ip), vehicle: water 105 % of control

Nc1nc2ncc(CNc3nc(C(=O)NC(CCC(=O)O)C(=O)O)cs3)nc2c(=O)[nH]1 (stereo unspecified)
inactive: dose: 25.0 mg/kg/injection, schedule: Q01DX009 (ip), vehicle: alkali diluted with saline 97 % of control | dose: 50.0 mg/kg/injection, schedule: Q01DX009 (ip), vehicle: alkali diluted with saline 93 % of control | [17] 101 % of control | dose: 75.0 mg/kg/injection, schedule: Q01DX009 (ip), vehicle: alkali diluted with saline 103 % of control | dose: 100.0 mg/kg/injection, schedule: Q01DX009 (ip), vehicle: alkali diluted with saline 92 % of control | dose: 150.0 mg/kg/injection, schedule: Q01DX001 (ip), vehicle: other 103 % of control

Cc1cc(N)c(C)c2ccncc12
inactive: dose: 5.0 mg/kg/injection, schedule: Q01DX001 (ip), vehicle: saline 103 % of control

COc1ccc(OC)c(NC(=O)Nc2cc(C(F)(F)F)ccc2Cl)c1
inactive: [18] 104 % of control | dose: 400.0 mg/kg/injection, schedule: Q01DX009 (ip), vehicle: Klucel (hydroxypropylcellulose) (HPC) 91 % of control

CCCCCCCCCCCC(=O)[O][Hg][c]1ccccc1
inactive: [17] 91 % of control

Cc1cccc(NC(=O)Nc2cccc3ccccc23)c1C
inactive: [3] 92 % of control | dose: 25.0 mg/kg/injection, schedule: Q04DX003 (ip), vehicle: Klucel (hydroxypropylcellulose) (HPC) 94 % of control | [4] 96 % of control | dose: 50.0 mg/kg/injection, schedule: Q04DX003 (ip), vehicle: Klucel (hydroxypropylcellulose) (HPC) 89 % of control | [18] 92 % of control | dose: 100.0 mg/kg/injection, schedule: Q04DX003 (ip), vehicle: Klucel (hydroxypropylcellulose) (HPC) 91 % of control | dose: 200.0 mg/kg/injection, schedule: Q04DX003 (ip), vehicle: Klucel (hydroxypropylcellulose) (HPC) 93 % of control | dose: 400.0 mg/kg/injection, schedule: Q04DX003 (ip), vehicle: Klucel (hydroxypropylcellulose) (HPC) 91 % of control
